Measurements: patent US20220039395A1, “INSECT CONTROL AGENTS” (priority 2018, published 2022)
“Also recorded” adds a separate entry of the source. Ends that are not written are not given here. Alexa‑488‑C5‑maleimide = fluorescent Alexa 488 label coupled to Cys via C5-maleimide

Tests used:
Myzus persicae [1] = test: Topical application by spraying, Potter Spray Tower; assay type: in vivo; details: 3000 μl, positive control 28.3 μM, counted 48 hours post spray
Protocol: (§1) Aphids were exposed to test peptides in the absence of additional external stress conditions.
(§2) Brassica rapa (Chinese cabbage; Wong Bok) were infested with 30 adult Myzus persicae aphids per plant. Aphids were left at least 2 hours to settle and begin feeding from the host plant.
Spraying took place inside a designated spray room. To ensure spray tracking, all sprayed solutions had amaranth dye added.
Potter Spray Tower (Burkard Manufacturing) was ‘primed’ by spraying 1000 μl of liquid coating the inside of the tower. Two controls were used:
i) vehicle spray only (Croda ATPlus UEP 100 LQ-(CQ) 0.1% v/v); and ii) Imidacloprid positive control (28.3 μM).
Imidacloprid was always applied last and via a second, separate, Potter Tower, to prevent any possibility of stray pesticide being left inside the tower and contaminating a test peptide-applied plant.
Spray volumes for all solutions were 3000 μl. The 6.9 mm spray head was loaded with 3000 μl of a 1×10^−5M peptide solution diluted in ATPlus 0.1%. After spraying was completed the plant was allowed to rest on the spray platform for 30 seconds to allow settling of the sprayed chemical.
For this experiment there were three test conditions: 1895 alone (1×10^−5M); 2129 alone (1×10^−5M); and a simultaneous co-application of 1895+2129 together (1×10^−5M of each peptide).
(§3) Post peptide application, each condition was placed into its own individual Bugdorm (Watkins and Doncaster, 44545), to prevent repulsed or displaced aphids moving from one condition to another. Numbers of alive and dead aphids on the plant were counted 48 hours post spray, and the presence of any fresh nymphs noted. Plants were watered prior to spraying but not afterwards to eliminate the possibility of drowning any aphids present or washing off the sprayed liquid.
Post spraying, the spray head was filled with over 3000 μl of 70% ethanol and sprayed until empty. The spray head was carefully removed and rinsed with 70% ethanol as some amaranth dye was observed on the spray head. […]

Myzus persicae [2] = test: Topical application by spraying, air brush; assay type: in vivo; details: 750 μl, positive control 28.3 μM, counted 48 hours post spray
Protocol: as §1, §2
Spraying took place inside an externally vented fume cupboard. […] To ensure spray tracking, all sprayed solutions had amaranth dye added, allowing the full surface of the plant to be evenly coated with the aerosolised compound.
The plants to be sprayed were placed inside a plastic disposal bag, inside the fume cupboard. This was used to control the area exposed to the aerosolised liquid, to avoid extensive spraying and cleaning inside the fume cupboard. The bag was further lined with absorbent paper towel to again help contain and control spray.
Each experiment had three controls:
i) no vehicle or peptide air spray only, negative control to assess effect of spraying on aphid ability to remain attached to the plant; ii) vehicle spray only (Tween 24 0.1%); and iii) Imidacloprid positive control (28.3 μM).
Imidacloprid was always applied last to prevent any possibility of stray pesticide being left inside the disposal bag and contaminating a test peptide applied plant.
Spray volumes for all solutions for this experiment 750 μl.
A clean air brush (ABEST AC06k30) was loaded with 750 μl of peptide solution diluted in […] 0.1% vehicle. For this experiment there were three test conditions: 1895 alone (1×10^−5M); 2129 alone (1×10^−5M); and a simultaneous co-application of 1895+2129 together (1×10^−5M of each peptide). During application, the air brush was held within the plastic bag and the compressor turned on. The air brush was then gently sprayed back and forth across the plant. […]
as §3, with “Plants were watered prior to spraying but not afterwards to eliminate the possibility of drowning any aphids present or washing off the sprayed liquid.” left out

Aphids = test: Feeding with peptides in artificial diet, mortality without other stress; assay type: in vivo, Myzus persicae; details: for Dead (48 h) / Dead (72 h) / Dead (96 h) / Dead (120 h) / Dead (144 h): artificial diet supplemented with peptide; for effect on mortality in the absence of additional stressors: no additional stress conditions
Protocol: A standard artificial diet for M. persicae was produced as described in Van Emden (2009) and provided the basal diet to which neuropeptide analogues were added for screening purposes. Neuropeptide analogues were diluted individually in the artificial diet to a pre-determined recommended concentration as follows: 1895 (3.5×10^−5 M) and 2019 (2.0×10^−5 M).
Feeding apparatus were constructed using a set-up developed by Sadeghi et al (2009). For this, a piece of Parafilm was stretched over a Plexiglas ring (h=4 cm, Ø=3 cm) and 100 μl of the artificial diet containing the desired neuropeptide analogue was pipette onto the Parafilm membrane. A second piece of Parafilm, stretched to 4 times the original thickness, was stretched over the original layer, sandwiching the artificial diet between two layers of Parafilm. A strip of Parafilm was wrapped around the circumference of the Plexiglas ring, sealing in the diet. A plastic ring (h=1.2 cm, Ø=3.4 cm) was subsequently placed over the Parafilm layer, creating a walled chamber in which to house test aphids in contact with the Parafilm layer containing the artificial diet. Finally, a small Petri dish (h=1 cm, Ø=3.6 cm), modified for ventilation with net cloth, was placed on top of each feeding apparatus to prevent aphid escape.
To obtain aphids for use in experiments, reproducing anholocyclic adults were placed on individual excised leaves of Chinese cabbage at densities of 5 adults per leaf and allowed to reproduce for 24 h. The stem of each excised leaf was held within a 0.5 mL Eppendorf tube containing water via a punctured hole in the Eppendorf lid, and placed individually within a microcage (L=4 cm, Ø=9.5 cm). Following 24 h, adults were removed and resultant first instar nymphs (<1 day old and synchronised in age to within 24 h) retained. Nymphs were allowed to develop on the Chinese cabbage for 5 days. On day 5, (3rd instar) nymphs were transferred onto the artificial diet containing a neuropeptide analogue at densities of 1 per feeding chamber and monitored daily until death. Aphids were transferred to fresh artificial diet (containing neuropeptide analogue) every 5 days. Life history traits recorded include age at first reproduction, number of nymphs produced per 24 h period, and lifespan. From these parameters, lifetime fecundity and daily fecundity were calculated. Control groups were set up involving aphids reared on the host plant, an artificial diet without a neuropeptide analogue, and an artificial diet containing the native CAPA neuropeptide.
Aphids were reared on artificial diet, alone or supplemented with peptide 2129, 2315, 2316 or 2320. A control group (no test peptide) was reared on a host plant. No other stress conditions were applied.
For peptides 2315, 2316 and 2320, mortality was assessed at 48, 72, 96, 120 and 144 hours. A group of 9 or 10 insects was used for each time point, and all experiments were performed at least 4 times.

aphid = test: Topical application of peptides to aphid abdomen by microinjector, mortality; assay type: in vivo; details: 9 nl of 1×10^−5 M peptide in Armid FMPC applied topically to abdomen
Protocol: For peptides 2315, 2320 and 2125, peptides were diluted individually in an Armid FMPC formulation (AkzoNobel Surface Chemistry, Stenungsund, Sweden) to concentration of 1×10^−5 M. Using a Nanoject II Auto-Nanoliter micro-injector, 9 nl of the peptide solution was applied topically to the abdomen of a pre-reproductive adult aphid, coating the cuticle in the solution. Aphids were returned to the host plant and allowed to recover for 24 h before use in experiments. Control aphids were topically applied with 9 nl of the Armid FMPC formulation and, once again, allowed to recover for 24 h on the host plant before use in experiments.
Peptides were applied topically to insect abdomen by microinjector and the insects returned to the plant. Mortality was assessed after 24 hours. Separate controls were performed for each experiment. A group of 9 or 10 insects was used for each time point, and all experiments were performed 3 times.

[3] = tested on: M. rosae gut, brain and ventral nerve cord; test: Receptor mapping assay using fluorescently labelled neuropeptides; assay type: binding, Macrosiphum rosae; details: labelled neuropeptide 10^−7 M; for site of binding in the gut: displaced by excess unlabelled peptide
Protocol: (§4) Aphids were cold anesthetized and the tissue of interest dissected out in a 1:1 solution of Schneider's insect medium and optimized saline.^7,42 The dissected tissue was mounted on a poly-L-lysine-covered 35 mm glass bottom dish containing 1:1 saline. Nuclei were stained via incubation in DAPI (1 μg ml^−1) and a baseline image taken to determine the level of autofluorescence and adjust exposure settings accordingly. All images were recorded on an inverted confocal microscope (Zeiss LSM 510 Meta). A labelled neuropeptide (10^−7 M) was subsequently added and the sample imaged. The concentration of 10^−7 M was chosen for labelled neuropeptides because it represents the minimal concentration required to produce a saturated receptor response, thereby optimizing the conditions for optical detection of ligand-receptor complexes.^7 Following imagining, unlabelled neuropeptide (10^−5 M) was added to the sample and a time-lapse experiment set up to determine if the unlabelled neuropeptide outcompeted the labelled neuropeptide, thus reaffirming the detection of the ligand-receptor complexes. Images were collected every 30 s for a duration of 20-30 m. All images were exported as JPEG files and subsequently viewed in FIJI and Microsoft Illustrator.

[4] = tested on: M. persicae gut, brain and ventral nerve cord; test: as above; assay type: binding, Myzus persicae; details: labelled neuropeptide 10^−7 M; for site of binding in the gut: displaced by excess unlabelled peptide
Protocol: as §4

Compound | % Lethality (Myzus persicae [1]) [%] | % Lethality (Myzus persicae [2]) [%] | Dead (48 h) (Aphids) [%] | Dead (72 h) (Aphids) [%] | Dead (96 h) (Aphids) [%] | Dead (120 h) (Aphids) [%] | Dead (144 h) (Aphids) [%] | effect on mortality in the absence of additional stressors (Aphids) | effect on mortality in the absence of additional stressors (Aphids; listed as 2135) | Dead (24 h) (aphid) [%] | staining of brain and ventral nerve cord (VNC) [3] | site of binding in the gut [3] | staining of brain and ventral nerve cord (VNC) [4] | site of binding in the gut [4]
O=[N+]([O-])NC1=NCCN1Cc1ccc(Cl)nc1 [Imadocloprid, Imidacloprid, reference compound] | 93 | 100 | – | – | – | – | – | – | – | – | – | – | – | –
ASG[βhL]VAFPRV-NH2 [compound 2315] | – | – | 45.0 | 60.0 | 70.0 | 77.5 | 80.0 | increase mortality in the absence of additional stressors | increase mortality in the absence of additional stress conditions | 33.3 | – | – | – | –
Alexa-488-C5-maleimide-CNSVVLGKKQRFHSWGamide (C(Alexa‑488‑C5‑maleimide)NSVVLGKKQRFHSWG-NH2) [kinin-F] | – | – | – | – | – | – | – | – | – | – | no specific staining | bind to the circular and longitudinal muscles of the aphid gut | staining apparent in a bilateral symmetrical ‘ladder’ of neuronal clusters | bind to the circular and longitudinal muscles of the aphid gut
ASG[βhL]V[βA]FPRV-NH2 [compound 2320] | – | – | 70 | 80 | 80 | 80 | 85 | increase mortality in the absence of additional stress conditions; also recorded: increase mortality in the absence of additional stressors | – | 33.3 | – | – | – | –
TMR-C5-maleimide-CGANMGLYAFPRVamide (TMR-C5-maleimide on Cys; C-terminal amide; labelled CAPA-1) [CAPA-1-F] | – | – | – | – | – | – | – | – | – | – | no sites of receptor binding in either the brain or the VNC | bind to the circular and longitudinal muscles of the aphid gut | no sites of receptor binding in either the brain or the VNC | bind to the circular and longitudinal muscles of the aphid gut
